Experimental data from patent USRE39608E1, “Substituted benzimidazoles and their use as PARP inhibitors” (Abbott GmbH & Co. KG, priority 1998, dated 2007).
Counter-ions that a name gives are not always drawn.

Columns and labels:
[1] = S. Cuzzocrea et al., Br. J. Pharmacol. 121 (1997); cited from earlier work
[2] = Determination of the water solubility; assay type: physicochemical; settings: pH of from 5 to 6 with sodium acetate solution
Experimental: A compound to be measured was dissolved directly in a specified volume of water and the resulting solution was brought to a pH of from 5 to 6 with a sodium acetate solution so that the concentration of the active compound to be tested was reached. If the test substance was not present as a water-soluble salt, it was dissolved in a very small amount of dimethyl sulfoxide and then diluted with water (final concentration of dimethyl sulfoxide≦1%), after which the pH was adjusted here too. Here, Example 1 according to the invention gave a solubility of >0.5%.

Row | Structure (SMILES) | protective effects in a model for circulatory shock [1] | solubility [2]
1 | NC(=O)c1cccc(N)c1 [3-aminobenzamide] | protective effects | –
2 | NC(=O)c1cccc2[nH]c(C3CCNCC3)nc12 [Example 1, 2-(Piperidin-4-yl)benzimidazole-4-carboxamide.2 HCl] | – | > 0.5%
